US11389415B2, “Methods of regulating cannabinoid receptor activity-related disorders and diseases” (The United States of America as represented by the …, priority 2012, dated 2022)

Assays:
[1] = Effect on central nervous system functions; format: in vivo; conditions: as compared to tetrahydrocannabinol
Experimental: Additional studies were performed which further evaluated the effect of MNF on central nervous system functions.

ERK1/2 = ERK1/2 phosphorylation (GPR55 downstream signaling) in PANC-1 cells; format: cell-based, human
Experimental: Western blot analysis. For detection of intracellular signaling proteins, cells were lysed in radioimmunoprecipitation buffer containing EGTA and EDTA (Boston BioProducts, Ashland, Mass.). The lysis buffer contained a protease inhibitor cocktail (Sigma-Aldrich) and phosphatase inhibitor cocktail (Calbiochem, San Diego, Calif.). Equivalent amount of proteins (14 and 54 μg/well for PANC-1 and HepG2 cells, respectively) were separated on 4 to 12% precast gels (Invitrogen, Carlsbad, Calif.) using SDS-polyacrylamide gel electrophoresis under reducing conditions and then electrophoretically transferred onto polyvinylidene fluoride membrane (Invitrogen). Western blots were performed according to standard methods, which involved blocking in 5% non-fat milk and incubated with the antibody of interest, followed by incubation with a secondary antibody conjugated with the enzyme horseradish perodixase. […] The quantification of bands was done by volume densitometry by using ImageJ software. […]
Effect of MNF on O-1602-mediated increase in cell signaling. Serum-starved cells were pretreated in the absence or presence of 1 μM MNF for 10 minutes followed by a 10 minute incubation with 0, 2.5 and 10 μM O-1602 or 10% FBS, after which the levels of total ERK2 and phosphorylated forms of ERK1/2 (pErk1/2, Thr202/Tyr204), were determined by Western blotting technique. […]

COc1ccc(C[C@@H](C)NC[C@H](O)c2cc(O)cc(O)c2)c2ccccc12 [(R,R′)-MNF, (R,R′)-4′-methoxy-1-naphthylfenoterol]
effects on the central nervous system [1]: not have any significant negative effects on the central nervous system | effect on O-1602-mediated ERK phosphorylation (ERK1/2; PANC-1, 1 μM pretreatment 10 minutes): displayed exquisite sensitivity to MNF with regard to O-1602-mediated ERK phosphorylation | effect on serum-induced ERK phosphorylation (ERK1/2; PANC-1, 1 μM pretreatment, 10% FBS): potently inhibited serum-induced ERK phosphorylation in both cell lines
